Test results: patent US4670542A, “New antibiotics, preparation and use of and intermediates therefor” (Bayer Aktiengesellschaft, priority 1983, dated 1987)
Starred links: 1 amine or outer side, 2 acyl side, 3 side chain; linkers in the order of their positions; H or OH if unused. Non-standard residues stand in square brackets, D forms with d. Residues, ends and D or L forms follow the SMILES beside them. ξ: configuration not given here. X1 = Cn1c(=NC(N)=O)ccn(C2SC(C(O)C(N[*:1])C(=O)[*:2])C(O)C2O)c1=O; Orn(N5-OH,N5-Ac) = CC(=O)N(O)CCC[C@H](N)C(=O)O; ξT = CC(O)C(N)C(=O)O; ξA = CC(N)C(=O)O

Columns and labels:
Assay in all cases: Hole test, inhibiting areola diameter, medium DST agar
Assay type in all cases: cell-based
E. coli T 7 = system: E. coli T 7; design: unit not given here
Excerpt: (§1) Activity against the germs listed below is found in vitro, on the basis of the diameter of the inhibiting areola.

E. coli 14 = system: E. coli 14
Excerpt: as §1

Klebs. 57 USA = conditions: 100 ug/ml
Excerpt: as §1

Prot. 1017 = conditions: 1000 ug/ml
Excerpt: as §1

Staph. 133 = conditions: 1000 ug/ml
Excerpt: as §1

SMILES | Inhibiting areola diameter E. coli T 7 (E. coli T 7; 10 ug/ml) | Inhibiting areola diameter E. coli T 7 (E. coli T 7; 100 ug/ml) | Inhibiting areola diameter E. coli 14 (E. coli 14; 10 ug/ml) | Inhibiting areola diameter E. coli 14 (E. coli 14; 100 ug/ml) | Inhibiting areola diameter Klebs. 57 USA (Klebs. 57 USA) | Inhibiting areola diameter E. coli T 7 (E. coli T 7; 1000 ug/ml) | Inhibiting areola diameter E. coli 14 (E. coli 14; 1000 ug/ml) | Inhibiting areola diameter Prot. 1017 (Prot. 1017) | Inhibiting areola diameter Staph. 133 (Staph. 133)
CC(=O)N(O)CCC[C@H](NC(=O)[C@H](CCCN(O)C(C)=O)NC(=O)[C@@H](N)CCCN(O)C(C)=O)C(=O)NC(C)C(=O)NC(C(=O)O)C(O)C1SC(n2ccc(=NC(N)=O)n(C)c2=O)C(O)C1O (some centres unmarked) [Compound 9, Peptidyl-nucleoside] (H-[Orn(N5-OH,N5-Ac)][Orn(N5-OH,N5-Ac)][Orn(N5-OH,N5-Ac)][ξA][X1]-OH) | 28 | 34 | 30 | 34 |  |  |  |  | 
CC(=O)N(O)CCC[C@H](N)C(=O)NC(C(=O)O)C(O)C1SC(n2ccc(=NC(N)=O)n(C)c2=O)C(O)C1O (some centres unmarked) [Compound 11] | 13 | 18 |  | 13 | 18 |  |  |  | 
CC(=O)N(O)CCC[C@H](NC(=O)[C@H](CCCN(O)C(C)=O)NC(=O)[C@@H](N)CCCN(O)C(C)=O)C(=O)NC(C(=O)O)C(O)C1SC(n2ccc(=NC(N)=O)n(C)c2=O)C(O)C1O (some centres unmarked) [Compound 13] |  |  |  |  |  | 19 | 20 | 20 | 
CC(=O)N(O)CCC[C@H](NC(=O)[C@H](CCCN(O)C(C)=O)NC(=O)[C@@H](N)CCCN(O)C(C)=O)C(=O)NC(C(=O)NC(C(=O)O)C(O)C1SC(n2ccc(=NC(N)=O)n(C)c2=O)C(O)C1O)C(C)O (some centres unmarked) [Compound 20] (H-[Orn(N5-OH,N5-Ac)][Orn(N5-OH,N5-Ac)][Orn(N5-OH,N5-Ac)][ξT][X1]-OH) |  | 14 |  | 13 |  | 15 | 14 | 17 | 25
CC(=O)N(O)CCC[C@H](NC(=O)[C@H](CCCN(O)C(C)=O)NC(=O)[C@@H](N)CCCN(O)C(C)=O)C(=O)NC(C(=O)O)C(O)C1SC(n2ccc(=O)n(C)c2=O)C(O)C1O (some centres unmarked) [Compound 24] |  | 18 |  |  |  |  | 18 | 18 | 
